Experiments:
[1] = biological target: Sodium-dependent dopamine transporter (Rattus norvegicus, UniProt P23977); assay: Displacement of [125I]RTI-55 from Dopamine transporter of rat striatal membrane
[2] = biological target: Sodium-dependent serotonin transporter (Rattus norvegicus, UniProt P31652); assay: Displacement of [3H]paroxetine from Serotonin transporter of rat frontal cortex membrane; assay type: tissue-based
[3] = biological target: Monoamine transporters; serotonin & dopamine (Rattus norvegicus) (UniProt P31652+P23977); assay: Relative affinity for serotonin and Dopamine transporters; assay type: protein assay
Chain of Monoamine transporters; serotonin & dopamine (Rattus norvegicus) (P23977 whole entry, looked up): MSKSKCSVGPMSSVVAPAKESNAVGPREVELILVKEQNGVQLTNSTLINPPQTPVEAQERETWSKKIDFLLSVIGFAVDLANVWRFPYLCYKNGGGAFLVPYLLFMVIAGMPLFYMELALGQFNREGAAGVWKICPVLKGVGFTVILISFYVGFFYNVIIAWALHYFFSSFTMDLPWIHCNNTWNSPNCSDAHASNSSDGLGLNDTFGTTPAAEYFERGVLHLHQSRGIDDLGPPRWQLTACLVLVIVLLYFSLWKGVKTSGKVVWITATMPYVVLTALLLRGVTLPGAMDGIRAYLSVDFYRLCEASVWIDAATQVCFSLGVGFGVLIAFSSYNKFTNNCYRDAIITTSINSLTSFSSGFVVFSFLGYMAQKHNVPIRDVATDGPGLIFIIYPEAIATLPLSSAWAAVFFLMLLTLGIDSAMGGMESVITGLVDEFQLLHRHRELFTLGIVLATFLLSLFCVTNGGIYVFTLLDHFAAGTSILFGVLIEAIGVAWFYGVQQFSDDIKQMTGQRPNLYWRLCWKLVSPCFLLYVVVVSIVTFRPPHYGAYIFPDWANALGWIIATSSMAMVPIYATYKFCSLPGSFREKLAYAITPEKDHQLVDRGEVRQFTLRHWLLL
Chain of Monoamine transporters; serotonin & dopamine (Rattus norvegicus) (P31652 whole entry, looked up): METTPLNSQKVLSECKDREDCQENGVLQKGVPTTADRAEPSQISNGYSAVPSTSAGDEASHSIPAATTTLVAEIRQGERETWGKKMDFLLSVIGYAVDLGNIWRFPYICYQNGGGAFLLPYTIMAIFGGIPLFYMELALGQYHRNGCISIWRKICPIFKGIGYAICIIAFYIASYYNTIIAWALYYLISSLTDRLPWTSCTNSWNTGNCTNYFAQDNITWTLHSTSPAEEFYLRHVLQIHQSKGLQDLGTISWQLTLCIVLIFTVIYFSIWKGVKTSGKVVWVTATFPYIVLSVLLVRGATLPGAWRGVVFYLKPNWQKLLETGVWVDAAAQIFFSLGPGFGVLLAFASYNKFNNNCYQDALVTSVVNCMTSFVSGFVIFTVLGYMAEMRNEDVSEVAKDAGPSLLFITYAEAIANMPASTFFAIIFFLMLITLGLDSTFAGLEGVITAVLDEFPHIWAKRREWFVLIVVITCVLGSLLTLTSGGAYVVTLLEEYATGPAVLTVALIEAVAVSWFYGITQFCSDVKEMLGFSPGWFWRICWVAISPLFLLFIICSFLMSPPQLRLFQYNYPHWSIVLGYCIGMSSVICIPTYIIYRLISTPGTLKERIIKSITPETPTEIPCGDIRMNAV

Chain of Sodium-dependent dopamine transporter (P23977 whole entry): as the sequence (P23977 whole entry, looked up) above
Chain of Sodium-dependent serotonin transporter (P31652 whole entry): as the sequence (P31652 whole entry, looked up) above

With `CCOC(=O)C1C2CCC(CC1c1ccc3c(ccn3CC)c1)N2` (centres undefined) the IC50 [1] was 2.37 nM, the Ki [2] was 3.04 nM and the Ratio [3] was 0.78.
With `CCOC(=O)C1C2CCC(CC1c1ccc(-c3ccc(-c4ccccc4)n3C)cc1)N2` (centres undefined) the IC50 [1] was over 1000 nM, the Ki [2] was 112 nM and the Ratio [3] was over 8.93.
With `CCOC(=O)C1C2CCC(CC1c1ccc3c(ccn3C)c1)N2` (centres undefined) the IC50 [1] was 2.73 nM, the Ki [2] was 1.74 nM and the Ratio [3] was 1.57.
`CCOC(=O)C1C(c2ccc3c(ccn3C)c2)CC2CCC1N2C` (centres undefined) was tested, and the IC50 [1] was 0.75 nM, the Ki [2] was 2.84 nM and the Ratio [3] was 0.26.
Work on `CCOC(=O)C1C2CCC(CC1c1ccc(-c3ccc(C)n3C)cc1)N2` (centres undefined) yielded an IC50 [1] of 825 nM, a Ki [2] of 49.1 nM and a Ratio [3] of 16.8.
For `CCOC(=O)C1C(c2ccc3c(ccn3CC)c2)CC2CCC1N2C` (centres undefined), the IC50 [1] was 1.2 nM, the Ki [2] was 5.54 nM and the Ratio [3] was 0.22.
With `CCOC(=O)C1C2CCC(CC1c1ccc(-c3cccn3Cc3ccccc3)cc1)N2` (centres undefined) the IC50 [1] was 32.2 nM, the Ki [2] was 6.36 nM and the Ratio [3] was 5.06.
`CCOC(=O)C1C(c2ccc(-c3cccn3Cc3ccccc3)cc2)CC2CCC1N2C` (centres undefined) showed an IC50 [1] of 58 nM, a Ki [2] of 59.2 nM and a Ratio [3] of 0.98.
`CCOC(=O)C1C2CCC(CC1c1ccc(-c3cccn3C)cc1)N2` (centres undefined) gave an IC50 [1] of 614 nM, a Ki [2] of 1.05 nM and a Ratio [3] of 585.
`CCOC(=O)C1C(c2ccc(-c3c(C)ccn3C)cc2)CC2CCC1N2C` (centres undefined) showed an IC50 [1] of over 1000 nM and a Ki [2] of over 1000 nM.
`CCOC(=O)C1C(c2ccc(-c3cccn3C)cc2)CC2CCC1N2C` (centres undefined) gave an IC50 [1] of 703 nM, a Ki [2] of 25.6 nM and a Ratio [3] of 27.4.
`CCOC(=O)C1C2CCC(CC1c1ccc(-c3cccn3CC)cc1)N2` (centres undefined) gave an IC50 [1] of over 1000 nM, a Ki [2] of 15.7 nM and a Ratio [3] of over 63.7.
In the case of `CCOC(=O)C1C2CCC(CC1c1ccc(-c3c(C)ccn3C)cc1)N2` (centres undefined), the Ki [2] is reported as 48.8 nM.
Compound `CCOC(=O)C1C(c2ccc(-c3cccn3CC)cc2)CC2CCC1N2C` (centres undefined) has an IC50 [1] of over 1000 nM, a Ki [2] of 337 nM and a Ratio [3] of over 2.97.
